Results as given in patent publication US8362070B2, “Application of puerarin in the preparation of P2X3 mediated drugs for pain/nervous system diseases” (Nanchang University, priority 2009, dated 2013).

Tests used:
P2X3 receptor [1] = assay: Immunohistochemistry of P2X3 receptor expression in dorsal root ganglion of CCI rats; assay type: in vivo, rat; settings: L4/L5 DRG
P2X3 receptor mRNA = assay: In situ hybridization of P2X3 receptor mRNA in dorsal root ganglion of CCI rats; assay type: in vivo, rat; settings: L4/L5 DRG
P2X3 receptor [2] = target: T1, P2X3 receptor (Rattus norvegicus, UniProt P49654); assay: Whole-cell patch clamp of ATP or α,β-meATP activated current in DRG neurons of CCI rats; assay type: cell-based; settings: for DRG neurons sensitive to exogenous ATP: ATP 1-1000 μmol/L; for α,β-meATP-activated electric current in DRG neurons: α,β-meATP 10 μmol/L
T1 construct: The method for neuron sample isolated from DRG of rats was briefly described as below; endogenous in cells; host or cells: acutely dissociated L4/L5 DRG neurons of SD rats
T1 sequence (P49654 1-397): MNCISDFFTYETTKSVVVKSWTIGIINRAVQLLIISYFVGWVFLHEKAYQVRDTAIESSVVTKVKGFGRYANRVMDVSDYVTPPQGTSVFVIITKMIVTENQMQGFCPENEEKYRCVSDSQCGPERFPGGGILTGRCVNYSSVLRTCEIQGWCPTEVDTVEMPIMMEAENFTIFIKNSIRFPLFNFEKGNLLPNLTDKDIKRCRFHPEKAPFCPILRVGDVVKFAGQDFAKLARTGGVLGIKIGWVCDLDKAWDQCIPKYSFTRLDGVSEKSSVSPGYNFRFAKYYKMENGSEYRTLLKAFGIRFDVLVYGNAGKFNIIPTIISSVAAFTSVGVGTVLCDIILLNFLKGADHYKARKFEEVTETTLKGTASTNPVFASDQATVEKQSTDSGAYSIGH
Source text: The method for neuron sample isolated from DRG of rats was briefly described as below: the rats were knocked down and their skin in the back was cut open rapidly after decollation. The ribs that were connected to the spinal column at both sides were cut apart and the thoracolumbar spine was taken out and cut in half through the middle of the spine. The samples were kept in O2 saturated DMEM solution (Dubecco's Modified Eagle's medium), pH 7.40, and the osmotic pressure of this solution was 340 mOsm/kg. The sections L4 and L5 of nerve ganglion and connected nerve roots (dorsal nerve roots and ventral roots) as well as the spinal nerves were taken out inside the open vertebral canal, the connected nerves and adjacent connective tissue capsule were carefully removed by using fine corneal scissors and hairspring tweezer under an anatomical microscope, and the cleaned DRG should be cut into small pieces as far as possible and transferred to a culture flask, trypsin (type III, sigma) 0.5 g/L and collagenase (type IA, sigma) 1.0 g/L was then added, and the culture flask was incubated in a constant temperature shaking water bath (35 °C, 80 times/min) for 20-30 minutes, then proper amount of Soya beam trypsin inhibitor (type […]-s, Sigma) was added to stop the enzymatic digestion. The DRG cells after the above mentioned enzymatic and mechanical isolation were transferred to 35 mm culture dishes, and then they were kept still on the object stage of an inverted microscope for solution change for 30 minutes, subsequently the whole-cell patch clamp technique was utilized to record the effects of puerarin on ATP or α,β-meATP activated electric current. • (1) Carefully examining the connection and original setting of equipments in the experimental system. • (2) Turning on the power switch. • (3) Electrode installation: connecting the reference electrode, filling the glass electrode and then installing it on the electrode clamp holder. Notice: the electrode should not be over-filled; contacting the shielding can with hands before installing the electrodes in order to release the static electricity on the body. • (4) Phase boundary potential compensation and electrode resistance determination: filling solution in the microelectrode under the “searching” mode, adjusting the phase boundary potential compensation and measuring electrode resistance according to the responsive amplitude of electric current that was induced by pulsed voltage square wave. • (5) Cell sealing: adjusting the micro-operator to get the tip of the microelectrode close to the surface of the cell and a negative pressure is produced in the micro-electrode and thus the Giga-Ohm seal was formed. • (6) Rapid electric capacity compensation: adjusting the rapid electric capacity compensation and making the output signal free of ingredients of rapid electric capacitive current. • (7) Absorbing the cell membrane until it was disrupted: the working mode was switched to “forcipressure”. The membrane was absorbed until it was disrupted after the high resistance sealing was formed between the electrode and the cell (1-10 GΩ). The holding potential (H.P) was kept at −60 mV, and low pass membrane current was used (1 kHz, −3 dB). • (8) Slow capacitive compensation: adjusting the slow capacitive compensation and making the output signal free of ingredients of slow electric capacitive current. Tandem resistance compensation: adjusting the tandem resistance compensation until no shock was produced. The equipment for record of patch clamp was CEZ-2400 type patch clamp amplifier (Nihon-Kohden, Japan). The membrane was further absorbed until it was disrupted after the high resistance formed between the electrode and the cell membrane (1˜10 GΩ), and the capacitance and the tandem resistance compensation were adjusted. The holding potential (HP) was kept at −60 mV, low pass membrane current was used (1 kHz, −3 dB). The experimental results were traced by using the two-way recorder (LMS-2B, Chengdu). […]

P2X3 receptor [3] = assay: Immunohistochemical analysis of P2X3 expression in dorsal root ganglion of burn rats; assay type: in vivo, rat; settings: n=10
Experimental: SD rats (their body weights were 200±20 g) were randomly divided into the group I (sham back burn), the group II (Puerarin, intraperitoneal injection), the group III (superficial second degree back burn), the group IV (superficial second degree back burn+puerarin), the group V (control) and the group VI (superficial second degree back burn+Indocin). The rats in the group IV (superficial second degree back burn+puerarin) were subjected to intraperitoneal injection of puerarin (100 mg/kg) everyday for continuous three days 30 minutes before burn and after burn. Immunohistochemical analysis was used to detect the change in P2X3 expression in dorsal root ganglion in burn position of rats. Results of immunohistochemical analysis were subjected to analysis by using Hmias-2000 high-resolution color medical image analysis system.

P2X3 mRNA = assay: RT-PCR of P2X3 mRNA expression in dorsal root ganglion of burn rats; assay type: in vivo, rat; settings: n=3
Experimental: SD rats (their body weights were between 200±20 g) were randomly divided into the group I (sham back burn), the group II (Puerarin, intraperitoneal injection), the group III (superficial second degree back burn), the group IV (superficial second degree back burn+puerarin), the group V (control) and the group VI (superficial second degree back burn+Indocin). The rats in the group IV (superficial second degree back burn+puerarin) were subjected to intraperitoneal injection of puerarin (100 mg/kg) 30 minutes before burn and after burn everyday for continuous three days. The rats in the group VI (superficial second degree back burn+Indocin) were subjected to intraperitoneal injection of idomethine (4 mg/kg/d) 30 minutes before burn and after burn everyday for continuous three days. Primer design: β-actin was selected as the internal reference and the sequences for the primers were as below: Gel image system was used to record the scanned values for spot density (average optical density) of target electrophoresis bands, and the ratio between P2X3 band and corresponding β-actin band was used as the relative amount of P2X3 mRNA expression.

[4] = CCI rats + drug, 14 days after operation, CCI 1.64±0.05, control 1.15±0.03
[5] = CCI rats + drug, 14 days after operation, CCI 1.33±0.02, control 0.82±0.02
[6] = superficial second degree back burn + drug (puerarin 100 mg/kg i.p. three days), burn 1.21±0.04, control 1.03±0.02
[7] = superficial second degree back burn + drug (puerarin 100 mg/kg i.p., idomethine 4 mg/kg/d i.p., three days), burn 1.04±0.03, control 0.91±0.03
[8] = puerarin alone, no CCI, 14 days

Structure (SMILES) | average optical density of P2X3 positive neurons (P2X3 receptor, immunohistochemistry) (P2X3 receptor [1]; [4]) | average optical density of P2X3 positive neurons (P2X3 receptor mRNA, in situ hybridization) (P2X3 receptor mRNA; [5]) | ATP-activated electric current in DRG neurons in comparison to CCI group (P2X3 receptor [2]; CCI rats + Indocin, p<0.05) | DRG neurons sensitive to exogenous ATP (P2X3 receptor [2]; CCI rats + drug) [%] | α,β-meATP-activated electric current in DRG neurons (P2X3 receptor [2]; CCI rats + drug) | average optical density (P2X3 expression, immunohistochemistry, DRG) (P2X3 receptor [3]; [6]) | relative expression amount of P2X3 mRNA (after normalization with corresponding β-actin), RT-PCR (P2X3 mRNA; [7]) | average optical density of P2X3 positive neurons (P2X3 receptor, immunohistochemistry) (P2X3 receptor [1]; [8]) | average optical density of P2X3 positive neurons (P2X3 receptor mRNA, in situ hybridization) (P2X3 receptor mRNA; [8]) | ATP-activated electric current in DRG neurons in comparison to the idomethine treatment group (P2X3 receptor [2]; CCI rats + puerarin, p<0.05) | ATP-activated electric current in DRG neurons, difference from groups I, II and V (P2X3 receptor [2]; CCI rats + puerarin, p>0.05) | DRG neurons sensitive to exogenous ATP (P2X3 receptor [2]; puerarin alone, no CCI) [%] | α,β-meATP-activated electric current in DRG neurons (P2X3 receptor [2]; puerarin alone, no CCI) | average optical density (P2X3 expression, immunohistochemistry, DRG) (P2X3 receptor [3]; puerarin alone i.p., no burn) | relative expression amount of P2X3 mRNA (after normalization with corresponding β-actin), RT-PCR (P2X3 mRNA; puerarin alone i.p., no burn)
COc1ccc2c(c1)c(CC(=O)O)c(C)n2C(=O)c1ccc(Cl)cc1 [Indocin, Indometacin] | 1.34±0.04 | 1.14±0.01 | decreased | 89.7 | extremely low inward current | 1.16±0.03 | 0.97±0.02 |  |  |  |  |  |  |  | 
O=c1c(-c2ccc(O)cc2)coc2c([C@@H]3O[C@H](CO)[C@@H](O)[C@H](O)[C@H]3O)c(O)ccc12 [puerarin] | 1.28±0.04 | 0.98±0.05 |  | 87.5 | extremely low inward current | 1.10±0.02 | 0.90±0.02 | 1.07±0.03 | 0.82±0.03 | lower | not significant | 89.2 | extremely low inward current | 1.01±0.02 | 0.89±0.02
